The series is described as follows: Solubility observations. The format is physicochemical. As to the method:
To a 100 mL round-bottomed flask with a magnetic stirrer was added (2) (5.90 g, 22.67 mmol), maltol (3.57 g, 28.34 mmol), and 30 mL of acidic 2-ethoxyethanol (49:1 ethoxyethanol/12M HCl). The reaction vessel was fitted with a water-cooled condenser and the mixture heated to reflux for 64 h. The resulting suspension was vacuum-filtered while hot and the solids washed with water (50 mL), followed by acetone (50 mL), to afford the crude product as a fine brown solid. […] HRMS-ESI (m/z): [M+H]^+ calculated for C19H17N2O6 369.1081. found 369.1084.
In a typical experiment, an aqueous stock solution of DABA-bis-HP-N3 was prepared consisting of 2.28 mM ligand and 24.5 mM NaOH. […] A stock solution of Fe(NO3)3.9H2O was prepared consisting of 10.80 mM Fe^3+ and 4 mM HCl (as stabilizer). To a glass vial was added 877 μL ligand stock solution, followed by 1 mL Milli-Q H2O, followed by 123 μL Fe(III) stock and the resulting orange-red mixture (2 mL) shaken for 10 minutes. The as-synthesized particles have a mean diameter ranging from 10-20 nm (DLS). Particles were purified by filtration through an Amicon Ultra 15 mL centrifugal filter with a nominal molecular weight cutoff (MWCO) of 100 kDa, washing with 3×3 mL portions of Milli-Q H2O, spinning at 5000 rcf for 10 minutes each. The particles were resuspended in 2 mL of H2O to give an approximate azide concentration of 1 mM. The particle solution was lyophilized and the resulting dark red powder characterized by FTIR (KBr), showing the characteristic azide stretch at 2093 cm^−1 is retained after the nanoparticle synthesis.

SMILES strings stand for the structures.

As for `Cc1c(O)c(=O)ccn1-c1cc(C(=O)O)cc(-n2ccc(=O)c(O)c2C)c1` [compound 3, Diaminobenzoic Acid Bis-Hydroxypyridinone], the “solubility in hot DMSO and DMF” value (hot DMSO and DMF) is given as “soluble”. Further, the solubility in methanol entry (methanol) was “sparingly soluble”. On to `Cc1c(O)c(=O)ccn1-c1cc(C(=O)NCCCCN=[N+]=[N-])cc(-n2ccc(=O)c(O)c2C)c1` [compound 4, Diaminobenzoic Acid Bis-HP Azide], for which the solubility in water entry (water, as disodium salt) is “freely soluble”.

Source of the values: patent US9617541B2, “Biocompatible infinite coordination polymer nanoparticle-nucleic acid conjugates for antisense gene regulation” (NORTHWESTERN UNIVERSITY, priority 2014, dated 2017).
